Data: ChEMBL document CHEMBL5465560, “Selectivity Literature for EUbOPEN Chemogenomic Library” (2024)

How the values were obtained:
[1] = target: T1, Tyrosine-protein kinase ZAP-70 (Homo sapiens, UniProt P43403); test: Selectivity interaction (Kinase panel (enzymatic assay)) EUB0000595a ZAP70
T1 sequence (P43403 whole entry): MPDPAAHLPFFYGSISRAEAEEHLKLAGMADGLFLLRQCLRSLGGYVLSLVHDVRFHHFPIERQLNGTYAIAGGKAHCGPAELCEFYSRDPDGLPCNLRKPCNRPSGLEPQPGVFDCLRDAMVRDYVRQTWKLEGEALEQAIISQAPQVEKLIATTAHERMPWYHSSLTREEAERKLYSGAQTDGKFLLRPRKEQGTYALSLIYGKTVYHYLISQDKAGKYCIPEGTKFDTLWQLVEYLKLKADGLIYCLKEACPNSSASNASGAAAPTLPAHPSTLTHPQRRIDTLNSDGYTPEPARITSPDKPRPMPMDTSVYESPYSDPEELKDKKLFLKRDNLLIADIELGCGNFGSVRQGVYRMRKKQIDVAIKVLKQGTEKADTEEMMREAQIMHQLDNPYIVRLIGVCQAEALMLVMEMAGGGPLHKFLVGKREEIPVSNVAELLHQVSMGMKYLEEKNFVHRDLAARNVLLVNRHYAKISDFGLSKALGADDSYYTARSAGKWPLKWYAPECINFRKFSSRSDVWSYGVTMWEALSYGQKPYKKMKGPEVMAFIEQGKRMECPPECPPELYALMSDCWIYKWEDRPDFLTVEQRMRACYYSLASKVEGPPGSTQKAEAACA

[2] = target: Protein kinase C theta type (Homo sapiens, UniProt Q04759); test: Selectivity interaction (KinomeScan (DiscoverX)) EUB0000666a PRKCQ; conditions: at 10 µM
[3] = target: cAMP-dependent protein kinase catalytic subunit alpha (Homo sapiens, UniProt P17612); test: Selectivity interaction (Kinase counterscreening (biochemical assay)) EUB0000604a PRKACA
[4] = target: Ribosomal protein S6 kinase alpha-1 (Homo sapiens, UniProt Q15418); test: Selectivity interaction (Millipore kinase profiler) EUB0000124b RPS6KA1; conditions: at 10 µM
[5] = target: Tyrosine-protein kinase Lyn (Homo sapiens, UniProt P07948); test: Selectivity interaction (ProQinase) EUB0000171b LYN
[6] = target: T2, Serine/threonine-protein kinase ICK (Homo sapiens) (UniProt Q9UPZ9); test: Selectivity interaction (KinomeScan (DiscoverX)) EUB0000618a ICK; conditions: at 10 µM
T2 sequence (whole entry): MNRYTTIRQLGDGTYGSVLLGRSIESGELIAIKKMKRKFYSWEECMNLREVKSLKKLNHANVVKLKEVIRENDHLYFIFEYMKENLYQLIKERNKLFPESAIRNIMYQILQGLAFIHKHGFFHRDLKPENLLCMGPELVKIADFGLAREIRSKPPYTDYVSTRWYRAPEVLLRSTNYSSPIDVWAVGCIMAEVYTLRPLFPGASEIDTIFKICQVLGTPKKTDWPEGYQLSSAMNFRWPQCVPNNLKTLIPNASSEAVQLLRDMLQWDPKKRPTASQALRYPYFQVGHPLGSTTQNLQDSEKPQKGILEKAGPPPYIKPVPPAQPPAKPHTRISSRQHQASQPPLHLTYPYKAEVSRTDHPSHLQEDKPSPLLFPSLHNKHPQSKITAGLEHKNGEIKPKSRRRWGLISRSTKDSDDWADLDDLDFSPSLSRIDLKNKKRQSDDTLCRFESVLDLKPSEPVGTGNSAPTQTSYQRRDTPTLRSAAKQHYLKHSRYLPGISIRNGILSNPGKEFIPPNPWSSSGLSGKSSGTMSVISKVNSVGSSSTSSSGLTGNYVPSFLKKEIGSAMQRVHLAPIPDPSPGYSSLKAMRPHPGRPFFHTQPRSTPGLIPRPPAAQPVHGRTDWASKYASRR

[7] = target: T3, Serine/threonine-protein kinase Nek9 (Homo sapiens) (UniProt Q8TD19); test: Selectivity interaction (KinomeScan (DiscoverX)) EUB0000092b NEK9; conditions: at 10 µM
T3 sequence (whole entry): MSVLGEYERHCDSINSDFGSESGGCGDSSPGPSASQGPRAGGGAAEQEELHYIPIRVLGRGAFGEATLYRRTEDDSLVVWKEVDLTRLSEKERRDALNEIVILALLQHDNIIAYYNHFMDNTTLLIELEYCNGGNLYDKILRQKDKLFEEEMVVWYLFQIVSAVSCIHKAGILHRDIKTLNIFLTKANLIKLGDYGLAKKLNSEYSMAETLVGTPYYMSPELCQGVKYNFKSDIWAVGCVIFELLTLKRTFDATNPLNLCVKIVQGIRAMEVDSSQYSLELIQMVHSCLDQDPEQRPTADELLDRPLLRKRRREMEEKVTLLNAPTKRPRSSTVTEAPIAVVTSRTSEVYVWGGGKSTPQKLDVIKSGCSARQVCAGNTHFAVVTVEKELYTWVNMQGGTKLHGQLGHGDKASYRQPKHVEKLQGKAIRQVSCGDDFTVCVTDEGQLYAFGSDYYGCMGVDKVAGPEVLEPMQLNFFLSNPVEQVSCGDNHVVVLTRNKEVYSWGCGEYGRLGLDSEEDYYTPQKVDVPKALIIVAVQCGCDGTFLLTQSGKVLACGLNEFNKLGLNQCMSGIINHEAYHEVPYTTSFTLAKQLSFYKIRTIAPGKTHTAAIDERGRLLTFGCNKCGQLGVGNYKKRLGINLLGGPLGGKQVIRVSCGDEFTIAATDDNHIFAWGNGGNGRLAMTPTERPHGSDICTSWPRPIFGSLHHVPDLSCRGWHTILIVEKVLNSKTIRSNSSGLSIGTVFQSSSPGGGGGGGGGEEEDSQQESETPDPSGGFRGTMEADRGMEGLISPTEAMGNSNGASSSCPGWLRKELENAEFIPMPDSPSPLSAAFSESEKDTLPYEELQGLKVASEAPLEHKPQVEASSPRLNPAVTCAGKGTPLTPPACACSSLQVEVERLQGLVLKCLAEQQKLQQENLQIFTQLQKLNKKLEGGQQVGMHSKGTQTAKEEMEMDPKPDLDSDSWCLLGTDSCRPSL

Sequence of Tyrosine-protein kinase Lyn (P07948 2-512 limits assumed): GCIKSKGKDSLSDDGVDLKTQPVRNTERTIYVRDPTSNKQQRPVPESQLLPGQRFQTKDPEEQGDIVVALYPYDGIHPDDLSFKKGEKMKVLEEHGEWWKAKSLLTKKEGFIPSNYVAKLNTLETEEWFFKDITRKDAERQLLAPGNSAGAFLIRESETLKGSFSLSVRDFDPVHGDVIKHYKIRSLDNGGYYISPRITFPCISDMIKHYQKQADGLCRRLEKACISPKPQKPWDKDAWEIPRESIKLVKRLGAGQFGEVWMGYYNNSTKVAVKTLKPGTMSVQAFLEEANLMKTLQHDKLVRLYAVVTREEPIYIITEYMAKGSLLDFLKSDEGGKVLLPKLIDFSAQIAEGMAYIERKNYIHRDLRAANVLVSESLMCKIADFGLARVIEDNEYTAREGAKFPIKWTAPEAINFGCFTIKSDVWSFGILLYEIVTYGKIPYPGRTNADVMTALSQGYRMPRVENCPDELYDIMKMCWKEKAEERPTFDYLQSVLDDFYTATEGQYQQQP
Sequence of Ribosomal protein S6 kinase alpha-1 (Q15418 whole entry): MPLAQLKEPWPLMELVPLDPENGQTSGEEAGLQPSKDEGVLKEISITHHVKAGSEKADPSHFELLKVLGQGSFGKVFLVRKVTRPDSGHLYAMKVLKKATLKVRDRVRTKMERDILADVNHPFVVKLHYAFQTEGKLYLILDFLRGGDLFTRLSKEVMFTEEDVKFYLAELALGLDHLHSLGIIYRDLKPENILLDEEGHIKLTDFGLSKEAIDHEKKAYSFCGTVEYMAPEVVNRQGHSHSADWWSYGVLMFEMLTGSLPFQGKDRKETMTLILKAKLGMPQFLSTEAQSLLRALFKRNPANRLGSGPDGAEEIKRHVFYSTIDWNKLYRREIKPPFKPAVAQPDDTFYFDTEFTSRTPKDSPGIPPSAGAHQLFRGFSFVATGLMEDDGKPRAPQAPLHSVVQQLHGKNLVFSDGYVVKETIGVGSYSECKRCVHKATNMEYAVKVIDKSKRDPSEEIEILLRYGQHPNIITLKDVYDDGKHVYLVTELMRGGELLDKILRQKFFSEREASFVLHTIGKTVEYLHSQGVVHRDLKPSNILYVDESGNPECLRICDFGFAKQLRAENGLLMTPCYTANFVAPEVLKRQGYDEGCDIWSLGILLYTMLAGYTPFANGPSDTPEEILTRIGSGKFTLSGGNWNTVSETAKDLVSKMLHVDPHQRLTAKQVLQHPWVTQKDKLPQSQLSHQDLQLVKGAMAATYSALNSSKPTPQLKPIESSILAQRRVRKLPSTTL
Sequence of Protein kinase C theta type (Q04759 whole entry, looked up): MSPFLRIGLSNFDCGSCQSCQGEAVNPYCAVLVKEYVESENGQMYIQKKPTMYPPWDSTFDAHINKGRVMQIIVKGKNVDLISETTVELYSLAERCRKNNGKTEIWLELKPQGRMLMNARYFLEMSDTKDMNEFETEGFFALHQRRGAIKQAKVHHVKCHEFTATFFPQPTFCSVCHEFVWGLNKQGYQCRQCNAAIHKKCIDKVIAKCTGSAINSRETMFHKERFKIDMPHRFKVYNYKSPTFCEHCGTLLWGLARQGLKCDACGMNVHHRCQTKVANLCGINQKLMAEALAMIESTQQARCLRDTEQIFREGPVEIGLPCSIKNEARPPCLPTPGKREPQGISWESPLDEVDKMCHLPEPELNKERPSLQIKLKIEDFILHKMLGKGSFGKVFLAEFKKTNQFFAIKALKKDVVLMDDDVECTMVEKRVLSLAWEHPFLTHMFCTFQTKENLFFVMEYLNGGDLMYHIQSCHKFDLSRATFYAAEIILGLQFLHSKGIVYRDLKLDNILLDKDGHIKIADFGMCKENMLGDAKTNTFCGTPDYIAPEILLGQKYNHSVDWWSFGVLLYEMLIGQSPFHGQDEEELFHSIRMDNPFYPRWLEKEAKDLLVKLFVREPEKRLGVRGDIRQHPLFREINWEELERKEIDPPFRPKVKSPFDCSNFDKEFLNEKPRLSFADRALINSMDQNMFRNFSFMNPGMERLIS

Question: For `COCC(=O)NC/C=C/c1ccc2ncnc(Nc3ccc(Oc4ccc(C)nc4)c(C)c3)c2c1` [CP-724714], which IC50 [1] is on record?
Answer: Its IC50 is greater than 10 µM.

Question: How did the % of control [2] turn out when `O=C(NOC[C@H](O)CO)c1ccc(F)c(F)c1Nc1ccc(I)cc1F` was run?
Answer: Its % of control is 100%.

Question: For `Cc1cnc(Nc2ccc(F)cc2Cl)nc1-c1c[nH]c(C(=O)N[C@H](CO)c2cccc(Cl)c2)c1`, which Ki [3] is on record?
Answer: Its Ki is greater than 4 µM.

Question: For `CC(=O)Nc1cccc(-n2c(=O)n(C3CC3)c(=O)c3c(Nc4ccc(I)cc4F)n(C)c(=O)c(C)c32)c1`, which % of control [4] is on record?
Answer: Its % of control is 116%.

Question: `C=CC(=O)Nc1cccc(C(=O)Nc2ccc(Nc3cc(-c4[nH]c(SC)nc4C)ccn3)cc2)c1` was tested. Which % of control ([5]; at 1 µM) did it give?
Answer: Its % of control is 99%.

Question: What about the % of control ([5]; at 5 µM) of the same molecule?
Answer: Its % of control is 94%.

Question: For `O[C@H]1CC[C@H](Nc2ncc3nc(Nc4c(F)cc(F)cc4F)n([C@H]4CCOC4)c3n2)CC1`, which % of control [6] is on record?
Answer: The % of control was 100%.

Question: `CCC(=O)N1CCN(c2ccc(-n3c(=O)ccc4cnc5ccc(-c6cnc7ccccc7c6)cc5c43)cc2C(F)(F)F)CC1` was tested. Which % of control [7] did it give?
Answer: Its % of control is 100%.
